Assay [1] has as its target human glucagon receptor (hGCGR) (Homo sapiens, UniProt P47871). Nature of the assay: cAMP production (HTRF) in CHO cells expressing hGCGR. Format: cell-based. Set-up: expressed in transfected cells. The following applies: Table 6, peptides modified at position 17; cAMP in CHO hGCGR cells; geometric mean; read-out: hGluc-R EC50. The method, boiled down: (§1)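 Potency values represent EC50 from 4-parameter logistic curves of HTRF % Delta F signal. Receptor-expressing CHO cells (hGCGR 2×10^5 cells/mL, hGLP-1R 1×10^5 cells/mL) were exposed for 30 min at room temperature before two-step cAMP detection.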

For assay [2], the target named is human GLP-1 receptor (hGLP-1R) (Homo sapiens, UniProt P43220). The assay is described as follows: cAMP production (HTRF) in CHO cells expressing hGLP-1R. The format is cell-based. The arrangement: expressed in transfected cells. Conditions: for EC50: Table 6, peptides modified at position 17, cAMP in CHO hGLP-1R cells, geometric mean, read-out: hGLP-1R EC50; for % Relative Potency Ratio: Table 6, % GLP-1R activity relative to GLP-1 / % GlucR activity relative to glucagon. The method, boiled down:
as §1
A general note: cAMP levels reflect the balance of adenylyl cyclase and phosphodiesterase activity.

The results in this text go back to patent US20250353891A1 (MEDIMMUNE LIMITED, priority 2022, published 2025).

Starred links: 1 amine or outer side, 2 acyl side, 3 side chain; linkers in the order of their positions; H or OH if unused. Non-standard residues stand in square brackets, D forms with d. Residues, ends and D or L forms follow the SMILES beside them. Groups on a side chain read outwards from the residue. *: point of attachment. C20 diacid = O=C(O)CCCCCCCCCCCCCCCCCCC(=O)*; γGlu = O=C(O)[C@H](CCC(=O)[*:2])N[*:1]; αMeF = C[C@](N)(Cc1ccccc1)C(=O)O; AEEA = NCCOCCOCC(=O)O; Aib = CC(C)(N)C(=O)O

Sequence of human GLP-1 receptor (hGLP-1R) (P43220 24-463): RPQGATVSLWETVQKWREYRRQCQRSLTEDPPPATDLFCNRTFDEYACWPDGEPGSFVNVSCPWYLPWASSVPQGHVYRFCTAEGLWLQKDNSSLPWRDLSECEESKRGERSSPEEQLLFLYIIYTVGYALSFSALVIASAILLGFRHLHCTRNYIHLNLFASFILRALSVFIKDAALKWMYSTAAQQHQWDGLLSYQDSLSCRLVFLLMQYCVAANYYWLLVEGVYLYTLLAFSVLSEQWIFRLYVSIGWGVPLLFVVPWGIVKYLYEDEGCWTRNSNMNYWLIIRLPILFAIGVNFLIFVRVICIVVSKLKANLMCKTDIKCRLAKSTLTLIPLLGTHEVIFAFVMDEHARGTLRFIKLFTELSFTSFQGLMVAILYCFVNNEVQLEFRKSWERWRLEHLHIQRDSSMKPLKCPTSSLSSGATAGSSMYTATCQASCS
Sequence of human glucagon receptor (hGCGR) (P47871 26-477): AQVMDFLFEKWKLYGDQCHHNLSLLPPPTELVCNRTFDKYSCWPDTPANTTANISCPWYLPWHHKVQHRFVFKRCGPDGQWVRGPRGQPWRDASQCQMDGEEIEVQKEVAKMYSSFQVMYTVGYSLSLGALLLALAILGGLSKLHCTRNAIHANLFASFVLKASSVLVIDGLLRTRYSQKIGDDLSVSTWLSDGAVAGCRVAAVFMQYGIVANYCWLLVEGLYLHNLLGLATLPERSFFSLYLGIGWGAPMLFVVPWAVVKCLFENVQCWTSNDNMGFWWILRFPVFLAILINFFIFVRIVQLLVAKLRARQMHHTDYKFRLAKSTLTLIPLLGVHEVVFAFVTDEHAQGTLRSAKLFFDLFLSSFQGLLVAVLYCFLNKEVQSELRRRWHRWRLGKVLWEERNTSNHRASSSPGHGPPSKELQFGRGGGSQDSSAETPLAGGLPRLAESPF

By EC50 is commonly meant the concentration that produces a half-maximal response. As to `CC(C)C[C@H](NC(=O)[C@H](Cc1c[nH]c2ccccc12)NC(=O)[C@H](CC(C)C)NC(=O)[C@@H](NC(=O)[C@H](Cc1ccccc1)NC(=O)[C@H](CC(=O)O)NC(=O)[C@H](CCCNC(=N)N)NC(=O)[C@H](C)NC(=O)[C@H](CCCNC(=N)N)NC(=O)[C@H](CCCCNC(=O)COCCOCCNC(=O)COCCOCCNC(=O)CC[C@H](NC(=O)CCCCCCCCCCCCCCCCCCC(=O)O)C(=O)O)NC(=O)[C@H](CCCCN)NC(=O)[C@H](CC(=O)O)NC(=O)[C@H](CC(C)C)NC(=O)[C@](C)(Cc1ccccc1)NC(=O)[C@H](CCCCN)NC(=O)[C@H](CO)NC(=O)[C@@H](NC(=O)[C@H](CC(=O)O)NC(=O)[C@H](CO)NC(=O)[C@@H](NC(=O)[C@H](Cc1ccccc1)NC(=O)[C@@H](NC(=O)CNC(=O)[C@H](CCC(N)=O)NC(=O)C(C)(C)NC(=O)[C@@H](N)Cc1c[nH]cn1)[C@@H](C)O)[C@@H](C)O)C(C)C)C(C)C)C(=O)N[C@@H](CC(C)C)C(=O)NC(C)(C)C(=O)N[C@@H](CCC(=O)O)C(N)=O` [Peptide 451] (H-H[Aib]QGTFTSDVSK[αMeF]LDKK([AEEA-AEEA-γGlu-C20 diacid])RARDFVLWLL[Aib]E-NH2; N-terminus assumed), in assay [1], the EC50 was 0.503 nM. Besides, in assay [2], the EC50 worked out at 0.895 nM and the “% Relative Potency Ratio” value turned out to be 1.1.
Regarding `CC(C)C[C@H](NC(=O)[C@H](C)NC(=O)[C@H](CCCNC(=N)N)NC(=O)[C@H](CCCCNC(=O)COCCOCCNC(=O)COCCOCCNC(=O)CC[C@H](NC(=O)CCCCCCCCCCCCCCCCCCC(=O)O)C(=O)O)NC(=O)[C@H](CCCCN)NC(=O)[C@H](CC(=O)O)NC(=O)[C@H](CC(C)C)NC(=O)[C@](C)(Cc1ccccc1)NC(=O)[C@H](CCCCN)NC(=O)[C@H](CO)NC(=O)[C@@H](NC(=O)[C@H](CC(=O)O)NC(=O)[C@H](CO)NC(=O)[C@@H](NC(=O)[C@H](Cc1ccccc1)NC(=O)[C@@H](NC(=O)CNC(=O)[C@H](CCC(N)=O)NC(=O)C(C)(C)NC(=O)[C@@H](N)Cc1c[nH]cn1)[C@@H](C)O)[C@@H](C)O)C(C)C)C(=O)N[C@@H](CC(=O)O)C(=O)N[C@@H](Cc1ccccc1)C(=O)N[C@H](C(=O)N[C@@H](CCCNC(=N)N)C(=O)N[C@@H](Cc1c[nH]c2ccccc12)C(=O)N[C@@H](CC(C)C)C(=O)N[C@@H](CC(C)C)C(=O)NC(C)(C)C(=O)N[C@@H](CCC(=O)O)C(N)=O)C(C)C` [Peptide 452] (H-H[Aib]QGTFTSDVSK[αMeF]LDKK([AEEA-AEEA-γGlu-C20 diacid])RALDFVRWLL[Aib]E-NH2), the EC50 in assay [1] worked out at 0.151 nM. Also, in assay [2], the EC50 was 0.495 nM and the “% Relative Potency Ratio” value worked out at 0.6.
For `CC(C)C[C@H](NC(=O)[C@H](Cc1c[nH]c2ccccc12)NC(=O)[C@H](CCCNC(=N)N)NC(=O)[C@@H](NC(=O)[C@H](Cc1ccccc1)NC(=O)[C@H](CC(=O)O)NC(=O)[C@H](CCC(N)=O)NC(=O)[C@H](C)NC(=O)[C@H](CCCNC(=N)N)NC(=O)[C@H](CCCCNC(=O)COCCOCCNC(=O)COCCOCCNC(=O)CC[C@H](NC(=O)CCCCCCCCCCCCCCCCCCC(=O)O)C(=O)O)NC(=O)[C@H](CCCCN)NC(=O)[C@H](CC(=O)O)NC(=O)[C@H](CC(C)C)NC(=O)[C@](C)(Cc1ccccc1)NC(=O)[C@H](CCCCN)NC(=O)[C@H](CO)NC(=O)[C@@H](NC(=O)[C@H](CC(=O)O)NC(=O)[C@H](CO)NC(=O)[C@@H](NC(=O)[C@H](Cc1ccccc1)NC(=O)[C@@H](NC(=O)CNC(=O)[C@H](CCC(N)=O)NC(=O)C(C)(C)NC(=O)[C@@H](N)Cc1c[nH]cn1)[C@@H](C)O)[C@@H](C)O)C(C)C)C(C)C)C(=O)N[C@@H](CC(C)C)C(=O)N[C@@H](CCC(=O)O)C(=O)NC(C)(C)C(=O)NCC(N)=O` [Peptide 453], in that order: 0.162 nM, 0.17 nM and 1.9.
As to `CC(C)C[C@H](NC(=O)[C@H](Cc1c[nH]c2ccccc12)NC(=O)[C@H](CCCNC(=N)N)NC(=O)[C@@H](NC(=O)[C@H](Cc1ccccc1)NC(=O)[C@H](CC(=O)O)NC(=O)[C@H](CCC(N)=O)NC(=O)[C@H](C)NC(=O)[C@H](CCCNC(=N)N)NC(=O)[C@H](CCCCNC(=O)COCCOCCNC(=O)COCCOCCNC(=O)CC[C@H](NC(=O)CCCCCCCCCCCCCCCCCCC(=O)O)C(=O)O)NC(=O)[C@H](CCCCN)NC(=O)[C@H](CC(=O)O)NC(=O)[C@H](CC(C)C)NC(=O)[C@](C)(Cc1ccccc1)NC(=O)[C@H](CCCCN)NC(=O)[C@H](CO)NC(=O)[C@@H](NC(=O)[C@H](CC(=O)O)NC(=O)[C@H](CO)NC(=O)[C@@H](NC(=O)[C@H](Cc1ccccc1)NC(=O)[C@@H](NC(=O)CNC(=O)[C@H](CCC(N)=O)NC(=O)C(C)(C)NC(=O)[C@@H](N)Cc1c[nH]cn1)[C@@H](C)O)[C@@H](C)O)C(C)C)C(C)C)C(=O)N[C@@H](CCC(=O)O)C(=O)N[C@@H](C)C(=O)NC(C)(C)C(=O)NCC(N)=O` [Peptide 454] (H-H[Aib]QGTFTSDVSK[αMeF]LDKK([AEEA-AEEA-γGlu-C20 diacid])RAQDFVRWLEA[Aib]G-NH2), the figures for the EC50 in assay [1] and in assay [2] were 0.274 nM and 0.173 nM, respectively. Moreover, the “% Relative Potency Ratio” value in assay [2] was 3.1.
With `CC(C)C[C@H](NC(=O)[C@H](Cc1c[nH]c2ccccc12)NC(=O)[C@H](CCCNC(=N)N)NC(=O)[C@@H](NC(=O)[C@H](Cc1ccccc1)NC(=O)[C@H](CC(=O)O)NC(=O)[C@H](CCC(N)=O)NC(=O)[C@H](C)NC(=O)[C@H](CCCNC(=N)N)NC(=O)[C@H](CCCCNC(=O)COCCOCCNC(=O)COCCOCCNC(=O)CC[C@H](NC(=O)CC[C@H](NC(=O)CCCCCCCCCCCCCCCCCCC(=O)O)C(=O)O)C(=O)O)NC(=O)[C@H](CCCCN)NC(=O)[C@H](CC(=O)O)NC(=O)[C@H](CC(C)C)NC(=O)[C@](C)(Cc1ccccc1)NC(=O)[C@H](CCCCN)NC(=O)[C@H](CO)NC(=O)[C@@H](NC(=O)[C@H](CC(=O)O)NC(=O)[C@H](CO)NC(=O)[C@@H](NC(=O)[C@H](Cc1ccccc1)NC(=O)[C@@H](NC(=O)CNC(=O)[C@H](CCC(N)=O)NC(=O)C(C)(C)NC(=O)[C@@H](N)Cc1c[nH]cn1)[C@@H](C)O)[C@@H](C)O)C(C)C)C(C)C)C(=O)N[C@@H](CC(C)C)C(=O)NC(C)(C)C(=O)N[C@@H](CCC(=O)O)C(N)=O` [Peptide 455] (H-H[Aib]QGTFTSDVSK[αMeF]LDKK([AEEA-AEEA-γGlu-γGlu-C20 diacid])RAQDFVRWLL[Aib]E-NH2), in assay [1], the EC50 stood at 0.114 nM. Also, in assay [2], the EC50 came to 0.127 nM and the “% Relative Potency Ratio” value turned out to be 1.8.
For `CC(C)C[C@H](NC(=O)[C@H](Cc1c[nH]c2ccccc12)NC(=O)[C@H](CCCNC(=N)N)NC(=O)[C@@H](NC(=O)[C@H](Cc1ccccc1)NC(=O)[C@H](CC(=O)O)NC(=O)[C@H](CCC(N)=O)NC(=O)[C@H](C)NC(=O)[C@H](CCCNC(=N)N)NC(=O)[C@H](CCCCNC(=O)COCCOCCNC(=O)COCCOCCNC(=O)CC[C@H](NC(=O)CCCCCCCCCCCCCCCCCCC(=O)O)C(=O)O)NC(=O)[C@H](CCCNC(=N)N)NC(=O)[C@H](CC(=O)O)NC(=O)[C@H](CC(C)C)NC(=O)[C@](C)(Cc1ccccc1)NC(=O)[C@H](CCCCN)NC(=O)[C@H](CO)NC(=O)[C@@H](NC(=O)[C@H](CC(=O)O)NC(=O)[C@H](CO)NC(=O)[C@@H](NC(=O)[C@H](Cc1ccccc1)NC(=O)[C@@H](NC(=O)CNC(=O)[C@H](CCC(N)=O)NC(=O)C(C)(C)NC(=O)[C@@H](N)Cc1c[nH]cn1)[C@@H](C)O)[C@@H](C)O)C(C)C)C(C)C)C(=O)N[C@@H](CC(C)C)C(=O)NC(C)(C)C(=O)N[C@@H](CCC(=O)O)C(N)=O` [Peptide 456] (H-H[Aib]QGTFTSDVSK[αMeF]LDRK([AEEA-AEEA-γGlu-C20 diacid])RAQDFVRWLL[Aib]E-NH2; N-terminus assumed), in that order: 0.0803 nM, 0.133 nM and 1.2.
